These results are taken from US5874461A, “Use of Nebivolol as an anti-atherogenic” (priority 1995, dated 1999).

Assay [1] relates to C6 glioma cells. Briefly: Fluorescence measurement of intracellular peroxides in C6 glioma cells after glutamate. The class given is cell-based. From the text:
(§1) Competitive inhibition by glutamate of cystine uptake in certain cells leads to glutathione depletion and oxidative stress. This oxidative stress model has been described for glial C6 glioma cells (Kato et al., 1992. A mechanism for glutamate toxicity in the C6 glioma cells involving inhibition of cystine uptake leading to glutathione depletion. Neurosci. 48:903-914) and for the neuronal cell line N18RE105 (Murphy et al., 1989. Glutamate toxicity in a neuronal cell line involves inhibition of cystine transport leading to oxidative stress. Neuron 2:1547-1558).
(§2) Cell culture: The C6 glioma cell line (American Type Culture Collection, CCL 107) was cultivated in DMEM supplemented with 2 or 4 mM glutamine, 1 mM pyruvate and 5 or 10% heat-inactivated foetal calf serum. Cultures were maintained at 37° C. in an air/5~10% CO2, water saturated atmosphere.
(§3) Glutathione depletion and evaluation of drugs as antioxidants: Experiments were carried out with cultures plated at 30,000~50,000 cells/cm^2 in 24-well culture plates (for toxicity and lipid peroxide measurements) or at 136,000 cells/cm^2 in 96-well culture plates (for GSH determination). After 8-24 hr, the cultures were switched to culture medium in the absence or presence of the cystine uptake inhibitor glutamate at a final concentration of 10 mM. In order to test drugs for inhibition of oxidative stress, the drug was added together with glutamate (final concentration of solvent was 0.01% hydroxypropyl-β-cylodextrin, 0.1% DMSO). Intracellular glutathione levels were measured after 6~8 hr, lipid peroxides were measured after 14~20 hr, and toxicity and protection were analysed after 48 hr using an LDH assay according to the method of Bergmeyer and Bernt (UV-assay with pyruvate and NADH. In: Methods of Enzymatic Analysis. 1974. H. U. Bergmeyer, ed. Acad. Press, New York, 2nd Ed., pp 574-579).
Fluorescence measurement of intracellular peroxides: Formation of intracellular peroxides was detected using 6-carboxy-2',7'-dichlorodihydrofluorescin diacetate, di(acetoxymethyl ester) (C-DCDHF, Molecular Probes). C-DCDHF was dissolved in DMSO at a concentration of 10 mM and stored at -70° C. under nitrogen. After exposure of the culture to the glutathione depleting agents, the cells were loaded with 10 μM C-DCDHF for one hour at 37° C. Medium was aspirated off, PBS was added to the cells, and plates were read in a Cytofluor II microplate reader (PerSeptive Biosystems). Excitation and emission wavelength were selected with a 485/530 nm filter pair. The results were expressed in relative fluorescence units/μg protein.

The subject of assay [2] is C6 glioma cells. Briefly: GSH content in C6 glioma cultures after glutamate. The class given is cell-based.
Description: as §1, §2, §3
Determination of GSH content in C6 glioma cultures: GSH levels were analysed by a micromethod, essentially as described by Vandeputte et al. (A microtiterplate assay for total glutathione and glutathione disulfide contents in cultured/isolated cells: performance study of a new miniaturised protocol. 1994. Cell Biol. Toxicol. 10:415-421), with a modification in the washing and homogenisation procedures. Cells (in 96-well plates) were washed with PBS, were homogenised in 50 μl 10 mM HCl containing 1.3% 5-sulfosalicylic acid, and the homogenate was centrifuged at 1200×g for 10 min at 4° C. Forty μl of the supernatant was transferred to a well of a 96-well plate and 200 μl reagent (1 mM 5,5'-dithiobis-(2-nitrobenzoic acid), 0.34 mM NADPH and 6.3 mM EDTA in 143 mM phosphate buffer pH 7.4) was added. After 5 min equilibration to room temperature the reaction was started by adding 40 μl glutathione reductase (8.5 IU/ml 143 mM phosphate buffer, 6.3 mM EDTA pH 7.4). NADPH oxidation was followed at 414 nm for 5 minutes with a Multiskan MCC/340 (Labsystems), and the change in absorbance (DA) per min was calculated. The glutathione content was deduced from a standard curve ranging from 0.2 to 2 nmol commercial GSH per test (DA/min plotted versus concentration).

Assay [3] relates to C6 glioma cells. Briefly: Protection of C6 glioma cells from glutathione depletion-mediated oxidative stress (toxicity, LDH assay). The settings on record: Rattus norvegicus, C6 glioma, 48 h, read-out: LDH release, % of total LDH. The class given is cell-based.
Description: as §1, §2, §3
A general note: Release of lactate dehydrogenase indicates damage to the cell membrane.

Assay [4] has as its system primary embryonic hippocampal cultures. Put plainly: VitE complementation (vitE depletion) test on primary neuronal cultures. The class given is cell-based, rats. The settings on record: for rescue of survival of vitE depleted cultures: 10^-7 M and 10^-6 M. How it is done:
Primary embryonic hippocampal cultures were prepared essentially as described previously (Pauwels et al., Van Aschouw, H. P., Peeters, L., Moeremans, M., Leysen, J. E. (1992) Chronic treatment with sabeluzole protects cultured rat brain neurons from the neurotoxic effects of excitatory amino acids. Synapse, 12:271-280). Hippocampal formations of rats at embryonic day 17 were dissected and dissociated in 0.05% trypsin, 0.1 mg/ml DNase I in DMEM (Dulbecco Modified Eagle Medium). Heat-inactivated horse serum (HS) was added to a concentration of 4%, and the cells were centrifuged, washed with DMEM, and resuspended in DMEM/Ham's F12 (3:1) containing 10% HS. The cells were plated at a density of 4×10^5 cells/cm^2 in poly L-lysine (0.001%) precoated multiwell-24 plates. On day 1 in culture, the medium was changed to chemically defined CDM-R12 medium (DMEM-HEPES/Ham's F12 (3:1) containing 0.26% bovine serum albumin, 30 nM sodium selenite, 3 nM 3,3',5 triiodo-L-thyronine, 0.35 μM retinol, 0.3 μM retinol acetate, 2.3 μM DL-a-tocopherol, 2.1 μM DL-a-tocopherol acetate, 3.6 μM linolenic acid, 3.6 μM linoleic acid, 0.125% human transferrin, […], 57.7 nM corticosterone, 49 U/I insulin, 0.4 μM biotin, 10 μM L-carnitine, 83 μM D(+)-galactose, 3.3 μM glutathione, 10 μM ethanolamine, 0.1 mM putrescine; Romijn, H. J., van Huizen, F., Wolters, P. S. (1984) Towards an improved serum-free, chemically defined medium for long-term culturing of cerebral cortex tissue. Neurosci. Behav. Rev., 8:301-334). Acute and prolonged pretreatment of the, cultures was essentially as described previously (Pauwels et al., 1992). Drugs were dissolved, and diluted in 10% or 1% hydroxypropyl-β-cyclodextrin such that the final concentrations of the solvent in the acute and chronic exposures were 0.1% and 0.01% respectively. Compound A as used in the following examples is [(RRSR)+(RRRS)+(SSSR) +(SSRS)]-α-[[[2-(chroman-2-yl)-2-hydroxy-ethyl]amino]methyl]-6-hydroxy-2-chromanmethanol ethanedioate (1:1).
For vitE depletion experiments, primary cultures were set up as above, but on day 1 in culture, the medium was changed to chemically defined CDM-R12 medium with (control) or without DL-a-tocopherol (vitE) and DL-a-tocopherol acetate, in the presence or absence of test coumpound. […] Addition of compounds could rescue the cultures. […] The EC50 for complementation of vitE refers to the concentration of the compound required to restore culture survival to 50% of the survival seen for the culture grown in vitE supplemented medium. Seven concentrations of each compound were tested in triplicate, the number of independent experiments is indicated in the table, and the mean EC50 -value±SD was calculated.
Primary neuronal cultures depend on the presence of the antioxidant vitE in the culture medium for survival in vitro. When vitE depleted medium is used to grow the cultures, survival drops to ±20% of control. Compounds with antioxidative properties are able to complement the lack of vitE, and as such can when added to the culture medium, rescue vitE devoid cultures. Several nebivolol derivatives were tested at 10^-7 M and 10^-6 M in the vitE depletion test on primary neuronal cultures.
When nebivolol derivatives were administered during culture, the cultures could be rescued to a certain extent. 100% vitE complementation refers to the survival of a cell culture which is indifferent from a vitE containing cell culture.
When hydroxynebivolol was administered during culture, the cultures could be rescued. The EC50 refers to the concentration at which the culture is rescued for 50%, as measured by cytoplasmic LDH activity.

The subject of the next assay is β-1. The settings on record: EP-0,334,429; cited from earlier work.
The conditions of assay [5]: atenolol, propanolol, prazosin, hydralazine and its own (SRRR) enantiomer; EP-0,334,429; cited from earlier work.
Setting [6] is: glutamate 10 mM, without or with compound 1 μM.

Structures are written as SMILES.

Consider `N[C@@H](CCC(=O)O)C(=O)O` [glutamate, reference compound], for which, in the assay with C6 glioma cells [1] (10 mM glutamate), the “increase in toxic intracellular peroxides” value is approximately 6 fold. Further, the “Intracellular peroxides (mean ± SD, n)” value in the assay on C6 glioma cells [1] (setting [6]) is 525 ± 57 Relative fluorescence units/μg. Also, the intracellular glutathione levels entry in the assay with C6 glioma cells [2] (10 mM glutamate, 6 hr or more) is “sharp reduction in intracellular glutathione levels”. Moreover, in the assay on C6 glioma cells [2] (setting [6]), the GSH content stood at 296 ± 26 pmol/well. Further, the cytotoxicity at 10000 µM in the assay with C6 glioma cells [3] was 93.2 ± 1.3%.
Turning to `O[C@H](CNC[C@@H](O)[C@H]1CCc2cc(F)ccc2O1)[C@@H]1CCc2cc(F)ccc2O1` [Compound 1-nebivolol, (SRRR) α,α'-iminobis(methylene)bis[6-fluoro-2-chroman-methanol]], the “% vitE complementation” value stood at 24 ± 26% in assay [4] (10^-6 M) and 22 ± 20% in assay [4] (10^-7 M). Also, in assay [4], the “rescue of survival of vitE depleted cultures” value is given as “able to rescue survival of vitE depleted cultures to a certain extent”. Moreover, the β-1 blocking activity result in the assay with β-1 is “potent and selective β-1 blocking agent”.
With `O[C@@H](CNC[C@H](O)[C@H]1CCc2cc(F)ccc2O1)[C@@H]1CCc2cc(F)ccc2O1` [d-nebivolol, (RSSS) α,α'-iminobis(methylene)bis[6-fluoro-2-chroman-methanol]], in assay [5], the “potentiation of antihypertensive agents” value is “potentiator for a series of antihypertensive agents”. Also, the “% vitE complementation” value came to 19 ± 22% in assay [4] (10^-6 M) and 12 ± 17% in assay [4] (10^-7 M). Also, in assay [4], the “rescue of survival of vitE depleted cultures” value is “able to rescue survival of vitE depleted cultures to a certain extent”. Further, in the assay with β-1, the β-1 blocking activity entry was “not to be a potent β-1 blocking agent”.
